36 compounds from the supplement of paper PMC12317010 can be followed below.

Where a name gives a salt, the structure may show the parent alone.

This data set is described as follows: collision cross section in nitrogen (drift tube, single-field); higher = larger gas-phase ion size.
Setting [1] is: ion type: [M+H], ion source: APCI, ion mode: Positive.
The mark [2] stands for this setting: ion type: [M+H], ion source: ESI, ion mode: Positive.
The mark [3] stands for this setting: ion type: [M+Na], ion source: ESI, ion mode: Positive.
Where [4] appears, read: ion type: [M-H], ion source: ESI, ion mode: Negative.
[5] abbreviates: ion type: [M+], ion source: APCI, ion mode: Positive.
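Also: chemical standards at 10 µM analysed by drift tube IMS-QTOF MS in about 3.95 torr nitrogen, mean of duplicate injections differing ≤1%, mass error below 10 ppm.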

In the case of `COc1cc2c(cc1OC)[C@@]13CCN4CC5=CCO[C@H]6CC(=O)N2[C@H]1[C@H]6[C@H]5C[C@H]43` [Brucine], the “collision cross section in nitrogen” value under setting [1] is listed as 191.3 Å², the “collision cross section in nitrogen” value under setting [2] was 194.1 Å² and the “collision cross section in nitrogen” value under setting [3] was found to be 204.6 Å².
`CCCC1O[C@@H]2C[C@H]3[C@@H]4CCC5=CC(=O)C=C[C@]5(C)[C@H]4[C@@H](O)C[C@]3(C)[C@]2(C(=O)CO)O1` (stereo partly drawn) [Budesonide]: the “collision cross section in nitrogen” value by setting is: under setting [3], 230.4 Å²; under setting [4], 204.6 Å².
Consider `COc1cc(OC)c(C(=O)CCCN2CCCC2)c(OC)c1` [Buflomedil hydrochloride], for which the “collision cross section in nitrogen” value under setting [1] came out at 176 Å², the “collision cross section in nitrogen” value under setting [2] is 176.1 Å² and the “collision cross section in nitrogen” value under setting [3] came to 178.9 Å².
With `Cc1cc(-n2nc3ccc(Cl)cc3n2)c(O)c(C(C)(C)C)c1` [Bumetrizole], the “collision cross section in nitrogen” value under setting [4] amounted to 183.2 Å².
In the case of `CCCCc1c(C)nc(NCC)nc1OS(=O)(=O)N(C)C` [Bupirimate], the “collision cross section in nitrogen” value stood at 175.8 Å² under setting [1], 175.8 Å² under setting [2], 181.8 Å² under setting [3] and 175.9 Å² under setting [4].
With `CC(C)N1C(=O)N(c2ccccc2)CSC1=NC(C)(C)C` [Buprofezin], the “collision cross section in nitrogen” value under setting [1] is given as 173.6 Å², the “collision cross section in nitrogen” value under setting [2] was determined as 173.9 Å² and the “collision cross section in nitrogen” value under setting [3] was determined as 188 Å².
`CC(NC(C)(C)C)C(=O)c1cccc(Cl)c1` (stereo not drawn) [Bupropion hydrochloride]: the “collision cross section in nitrogen” value under setting [2] turned out to be 158.6 Å².
As for `O=C1CC2(CCCC2)CC(=O)N1CCCCN1CCN(c2ncccn2)CC1` [Buspirone], the “collision cross section in nitrogen” value is, setting by setting: under setting [1], 199.2 Å²; under setting [2], 199.2 Å²; under setting [3], 201.6 Å²; under setting [5], 196.8 Å²; under setting [4], 202.9 Å².
Take `CCCCOCN(C(=O)CCl)c1c(CC)cccc1CC` [Butachlor]: under setting [3], the “collision cross section in nitrogen” value amounted to 184.4 Å².
Consider `CC(C)N(Cc1ccccc1)C(=O)C(C)(C)C` [Butam], for which the “collision cross section in nitrogen” value turned out to be 154.6 Å² under setting [1], 154.5 Å² under setting [2] and 163.4 Å² under setting [3].
For the compound `CNC(=O)ON=C(C)C(C)S(C)(=O)=O` (stereo not drawn) [Butoxycarboxim], the “collision cross section in nitrogen” value under setting [3] was 149.8 Å².
As for `C#CC(C)N(C)C(=O)Nc1ccc(Cl)cc1` (stereo not drawn) [Buturon], the “collision cross section in nitrogen” value is listed as 152.2 Å² under setting [1], 153.7 Å² under setting [2], 166.1 Å² under setting [3] and 154.6 Å² under setting [4].
For `CCCCOC(=O)C(C)CC` (stereo not drawn) [Butyl 2-methylbutyrate], the “collision cross section in nitrogen” value under setting [4] was found to be 146.8 Å².
The same measure, in the same setting: to `CCCCCCCCCCCCCC(=O)OCCCC` [Butyl myristate] belongs 177.6 Å²; to `CCCCOC(=O)c1ccc(O)cc1` [Butylparaben], 149.4 Å².
On to `CCCCCCOC(=O)CC(CC(=O)OCCCCCC)(OC(=O)CCC)C(=O)OCCCCCC` [Butyryl-n-trihexylcitrate], for which, under setting [3], the “collision cross section in nitrogen” value was 245.5 Å².
Regarding `CCCCCCCCCCCC[N+](C)(C)CC(=O)O` [C12-14-Alkyldimethyl betaines], the “collision cross section in nitrogen” value (ion source: ESI, ion mode: Positive, ion type: [M]+ (permanent cation)) is recorded as 183.8 Å².
For `CCN(CC)c1ccc(C(=C2C=CC(=[N+](CC)CC)C=C2)c2ccc(S(=O)(=O)O)cc2S(=O)(=O)[O-])cc1` [C.I. Acid Blue 1, sodium salt], the “collision cross section in nitrogen” value is 243 Å² under setting [2] and 255.4 Å² under setting [3].
For the compound `O=[N+]([O-])c1ccc(Nc2ccc(Nc3ccccc3)c(S(=O)(=O)O)c2)c([N+](=O)[O-])c1` [C.I. Acid Orange 3], the “collision cross section in nitrogen” value under setting [4] is reported as 204.4 Å².
For `O=S(=O)(O)c1ccc(N=Nc2c(O)ccc3ccccc23)cc1` [C.I. Acid Orange 7], under setting [4], the “collision cross section in nitrogen” value came out at 182.7 Å².
For the compound `Cc1cc(S(=O)(=O)O)ccc1N=Nc1c(O)ccc2ccccc12` [C.I. Acid Orange 8, monosodium salt], under setting [4], the “collision cross section in nitrogen” value stood at 187.1 Å².
`O=S(=O)(O)c1cc(S(=O)(=O)O)c2c(N=Nc3ccccc3)c(O)ccc2c1` [C.I. Acid Orange 10]: the “collision cross section in nitrogen” value under setting [4] was determined as 192.5 Å².
Still for that read-out and setting: to `Cc1ccc(N/N=c2\c(=O)cc/c(=N/Nc3ccc(S(=O)(=O)O)cc3)c2=O)c(C)c1` [C.I. Acid Orange 24, monosodium salt] belongs 221 Å².
With `COc1ccc(N=Nc2cc(C)c(N=Nc3ccc(S(=O)(=O)O)cc3)cc2OC)cc1` [C.I. Acid Orange 156], the “collision cross section in nitrogen” value under setting [2] amounted to 219.7 Å² and the “collision cross section in nitrogen” value under setting [4] was 231.2 Å².
As for `CC(=O)Nc1cc(S(=O)(=O)O)cc2cc(S(=O)(=O)O)c(N=Nc3ccccc3)c(O)c12` [C.I. Acid Red 1], under setting [4], the “collision cross section in nitrogen” value is reported as 210.2 Å².
With `O=S(=O)(O)c1ccc(N=Nc2c(O)ccc3ccccc23)c2ccccc12` [C.I. Acid Red 88, monosodium salt], the “collision cross section in nitrogen” value under setting [4] is 193.7 Å².
Regarding `Cc1ccc(S(=O)(=O)Oc2ccc(N=Nc3ccc(-c4ccc(N=Nc5c(O)ccc6cc(S(=O)(=O)O)cc(S(=O)(=O)O)c56)c(C)c4)cc3C)cc2)cc1` [C.I. Acid Red 114], the “collision cross section in nitrogen” value by setting is: under setting [2], 319.9 Å²; under setting [4], 317.8 Å².
In the case of `COc1ccccc1N=Nc1c(S(=O)(=O)O)cc2cc(S(=O)(=O)O)cc(NC(C)=O)c2c1O` [C.I. Acid Violet 12, disodium salt], the “collision cross section in nitrogen” value under setting [4] is listed as 218 Å².
Still for that read-out and setting: for `CC1=NN(c2ccc(S(=O)(=O)O)cc2)C(=O)C1N=Nc1ccccc1` (stereo not drawn) [C.I. Acid Yellow 11, sodium salt] the value was 199.2 Å²; for `CC1=NN(c2cc(Cl)c(S(=O)(=O)O)cc2Cl)C(=O)C1N=Nc1ccc(S(=O)(=O)O)cc1` (stereo not drawn) [C.I. Acid Yellow 17, disodium salt], 227.6 Å².
As to `CC1=NN(c2cc(S(=O)(=O)O)ccc2Cl)C(=O)C1/N=N/c1ccccc1` (stereo not drawn) [C.I. Acid Yellow 34, monosodium salt], the “collision cross section in nitrogen” value under setting [2] was determined as 196.9 Å² and the “collision cross section in nitrogen” value under setting [4] came out at 202.7 Å².
For `Nc1ccc(N=Nc2ccccc2)c(N)c1` [C.I. Basic Orange 2], the “collision cross section in nitrogen” value stood at 150.7 Å² under setting [1], 151.2 Å² under setting [2] and 149.6 Å² under setting [4].
Regarding `N=C1C=CC(=C(c2ccc(N)cc2)c2ccc(N)cc2)C=C1` [C.I. Basic Red 9 monohydrochloride], the “collision cross section in nitrogen” value under setting [1] came out at 173.3 Å², the “collision cross section in nitrogen” value under setting [2] was 174.1 Å², the “collision cross section in nitrogen” value under setting [5] turned out to be 173.7 Å² and the “collision cross section in nitrogen” value under setting [4] is recorded as 177.9 Å².
In the case of `Nc1ccc(N=Nc2ccc(-c3ccc(N=Nc4c(S(=O)(=O)O)cc5cc(S(=O)(=O)O)c(N=Nc6ccccc6)c(O)c5c4N)cc3)cc2)c(N)c1` [C.I. Direct Black 38], the “collision cross section in nitrogen” value under setting [2] was 311 Å² and the “collision cross section in nitrogen” value under setting [4] is reported as 304.4 Å².
The matching figures for `O=C(Nc1ccc2c(O)c(N=Nc3ccc(N=Nc4ccc(S(=O)(=O)O)cc4)cc3)c(S(=O)(=O)O)cc2c1)c1ccccc1` [C.I. Direct Red 81 disodium salt]: 276.7 Å² and 283.1 Å².
With `CCOc1ccc(N=Nc2ccc(C=Cc3ccc(N=Nc4ccc(OCC)cc4)cc3S(=O)(=O)O)c(S(=O)(=O)O)c2)cc1` [C.I. Direct Yellow 12], the “collision cross section in nitrogen” value under setting [2] was determined as 278.7 Å², the “collision cross section in nitrogen” value under setting [3] is recorded as 286.9 Å² and the “collision cross section in nitrogen” value under setting [4] is on record as 279.3 Å².
